Experimental data: BindingDB's records for doi:10.1021/jm000497n (Welfide, 2001)

Biological target: Chymotrypsin A (Bos taurus)
Experiment: In vitro inhibitory activity was determined against bovine pancreas chymotrypsin

`Cc1cccc(-c2ncc(N)c(=O)n2CC(=O)NC(Cc2ccccc2)C(=O)C(F)(F)C(=O)NCCC(=O)O)c1` (centres undefined) [3-{4-[2-(5-Amino-6-oxo-2-m-tolyl-6H-pyrimidin-1-yl)-acetylamino]-2,2-difluoro-3-oxo-5-phenyl-pentanoylamino}-propionic acid] and `Cc1cccc(-c2ncc(N)c(=O)n2CC(=O)NC(Cc2ccccc2)C(=O)C(F)(F)C(=O)NCC(N)=O)c1` (centres undefined) [4-[2-(5-Amino-6-oxo-2-m-tolyl-6H-pyrimidin-1-yl)-acetylamino]-2,2-difluoro-3-oxo-5-phenyl-pentanoic acid carbamoylmethyl-amide] are within 1.5-fold of each other in Ki: 1430 nM for the first, 1440 nM for the second.

Compared with `Cc1cccc(-c2ncc(N)c(=O)n2CC(=O)NC(Cc2ccccc2)C(=O)C(F)(F)C(=O)NCc2ccccc2)c1` (centres undefined) [4-[2-(5-Amino-6-oxo-2-m-tolyl-6H-pyrimidin-1-yl)-acetylamino]-2,2-difluoro-3-oxo-5-phenyl-pentanoic acid benzylamide], `Nc1cnc(-c2ccc(F)cc2)n(CC(=O)NC(Cc2ccccc2)C(=O)C(F)(F)C(=O)NCc2ccccc2)c1=O` (centres undefined) [4-{2-[5-Amino-2-(4-fluoro-phenyl)-6-oxo-6H-pyrimidin-1-yl]-acetylamino}-2,2-difluoro-3-oxo-5-phenyl-pentanoic acid benzylamide] is 1.7-fold higher in Ki: 1920 nM for the first, 3280 nM for the second. The first binds more tightly here.
